In patent publication US10004701B2, “Methods and compositions for treating infection” (UNIVERSITY OF ROCHESTER, priority 2012, dated 2018):
≈ marks a conversion by molar mass, not a printed value. Where two headings read alike, the source gives them in different places.

Assays:
[1] = system: Enterococcus faecium 824-05; assay: MIC testing; assay type: cell-based; conditions: 82405
Staphylococcus aureus = assay: MIC testing; assay type: cell-based
[2] = system: Klebsiella pneumoniae cKP1; assay: MIC testing; assay type: cell-based
[3] = system: Acinetobacter baumannii 98-37-09; assay: MIC testing; assay type: cell-based; conditions: 983709
[4] = system: Pseudomonas aeruginosa PA01; assay: MIC testing; assay type: cell-based
[5] = system: Enterobacter cloacae PMD1001; assay: MIC testing; assay type: cell-based
Escherichia coli 8295 [6] = assay: MIC testing; assay type: cell-based
Escherichia coli 8295 [7] = assay: AK assay 96-well format; assay type: cell-based
[8] = system: Klebsiella pneumoniae cKP1; assay: AK assay 96-well format; assay type: cell-based
[9] = system: Pseudomonas aeruginosa PA01; assay: AK assay 96-well format; assay type: cell-based
[10] = system: Enterobacter cloacae PMD1001; assay: AK assay 96-well format; assay type: cell-based
[11] = system: S. aureus strain UAMS-1 static biofilms; assay: AK assay of established biofilms (with plating); assay type: cell-based, Staphylococcus aureus; conditions: 10×MIC; for decrease in biofilm-associated bacteria / biofilm cell viability (plating): S. aureus UAMS-1 48-h biofilm, vs untreated
[12] = system: S. aureus SCV strain UAMS-1112; assay: Small-colony variant AK assay (with plating); assay type: cell-based, Staphylococcus aureus
Description: Thirty-six-hour cultures of S. aureus strain UAMS-1112 were used to inoculate (1:100 dilution) 100 ml of fresh MH medium and grown at 37° C. on a rotary shaker at 225 rpm to an optical density (600 nm) of 0.1 to 0.2, corresponding to ˜1×10^6 CFU ml^−1. Cells were pelleted by centrifugation and resuspended in 2 ml of fresh MH medium. Ninety-eight microliters of MH medium containing 5×10^6 bacteria and 2 μl of the indicated antibiotic were added to individual wells of a white-walled, 96-well microtiter plate. Well components were mixed by pipetting and incubated at 37° C. for 3 h. The plate was equilibrated to room temperature for 30 min. Next, 100 μl of ToxiLight AK reagent was added to each well, followed by incubation at room temperature for 30 min, and luminescence was measured using a SpectraMax M5 plate reader.
SCV are slow-growing populations of bacterial species that have been hypothesized to cause latent or recurrent infections and are tolerant of standard antibiotic treatment regimens. Based on the aberrant SCV growth characteristics, typical growth-based HTS assays would be difficult to employ. Accordingly, the ability of the AK assay to identify agents that kill S. aureus SCV strain UAMS-1112 was tested. […].

[13] = system: Enterococcus faecium 824-05; assay: AK assay 96-well format; assay type: cell-based
E. faecium = assay: AK assay 384-well format, Prestwick library screening; assay type: cell-based, Enterococcus faecium
[14] = system: S. aureus strain USA300-0114; assay: as above; assay type: cell-based, Staphylococcus aureus; conditions: Staphylococcus aureus, USA300, 3 h; 50 μM final drug concentration; 384-well format; cutoff for positive-scoring molecules 3-fold increase; read-out: AK-based Prestwick Library Screening Results, S. aureus (increase in extracellular AK activity)
K. pneumoniae = assay: as above; assay type: cell-based, Klebsiella pneumoniae; conditions: Klebsiella pneumoniae, 3 h; 50 μM final drug concentration; 384-well format; cutoff for positive-scoring molecules 3-fold increase; read-out: AK-based Prestwick Library Screening Results, K. pneumoniae (increase in extracellular AK activity)
[15] = system: A. baumannii strain 98-37-09; assay: as above; assay type: cell-based, Acinetobacter baumannii; conditions: Acinetobacter baumannii, 983709, 3 h; 50 μM final drug concentration; 384-well format; cutoff for positive-scoring molecules 3-fold increase; read-out: AK-based Prestwick Library Screening Results, A. baumannii (increase in extracellular AK activity)
P. aeruginosa = assay: as above; assay type: cell-based, Pseudomonas aeruginosa; conditions: Pseudomonas aeruginosa, 3 h; 50 μM final drug concentration; 384-well format; cutoff for positive-scoring molecules 3-fold increase; read-out: AK-based Prestwick Library Screening Results, P. aeruginosa (increase in extracellular AK activity)
E. cloacae = assay: as above; assay type: cell-based, Enterobacter cloacae; conditions: Enterobacter cloacae, 3 h; 50 μM final drug concentration; 384-well format; cutoff for positive-scoring molecules 3-fold increase; read-out: AK-based Prestwick Library Screening Results, E. cloacae (increase in extracellular AK activity)
E. coli = assay: as above; assay type: cell-based, Escherichia coli; conditions: Escherichia coli, 3 h; 50 μM final drug concentration; 384-well format; cutoff for positive-scoring molecules 3-fold increase; read-out: AK-based Prestwick Library Screening Results, E. coli (increase in extracellular AK activity)
E. faecium strain 824-05 = assay: Galleria mellonella model of E. faecium infection; assay type: in vivo; conditions: larval survival 48 h postinoculation
[16] = Acinetobacter baumannii 98-37-09, read-out: MIC
[17] = Enterococcus faecium 824-05, read-out: MIC
[18] = Staphylococcus aureus USA300-0114, read-out: MIC
[19] = Klebsiella pneumoniae cKP1, read-out: MIC
[20] = S. aureus UAMS-1112, 1× or 10×MIC for 3 h

| Structure (SMILES) | MIC ([1]; Enterococcus faecium) [µg/mL] | MIC (Staphylococcus aureus; Staphylococcus aureus) [µg/mL] | MIC [3, 16] [µg/mL] | Fold increase in AK signal (Escherichia coli 8295 [7]; treatment 0.5×MIC) [fold] | Fold increase in AK signal (Escherichia coli 8295 [7]; treatment 1.0×MIC) [fold] | MIC [1, 17] [µg/mL] | MIC (Staphylococcus aureus; [18]) [µg/mL] | MIC [2, 19] [µg/mL] | MIC ([4]; read-out: MIC) [µg/mL] | MIC ([5]; read-out: MIC) [µg/mL] | MIC (Escherichia coli 8295 [6]; read-out: MIC) [µg/mL] | Fold increase in AK signal ([8]; treatment 1.0×MIC) [fold] | Fold increase in AK signal ([10]; treatment 0.5×MIC) [fold] | Fold increase in AK signal ([10]; treatment 1.0×MIC) [fold] | other results |
| --- | --- | --- | --- | --- | --- | --- | --- | --- | --- | --- | --- | --- | --- | --- | --- |
| CC1(C)S[C@@H]2[C@H](NC(=O)[C@H](N)c3ccccc3)C(=O)N2[C@H]1C(=O)O [Ampicillin, ampicillin] | > 256 | 2 (≈ 5.72 µM) | 256 (≈ 733 µM) | 50 | 74 |  |  |  |  |  |  |  |  |  | MIC (Staphylococcus aureus; Staphylococcus aureus, USA300): > 256 µg/mL; MIC ([2]; Klebsiella pneumoniae, CKP1): > 256 µg/mL; MIC [4]: > 256 µg/mL; MIC [5]: > 256 µg/mL; MIC (Escherichia coli 8295 [6]): 128 µg/mL (≈ 366 µM) |
| CO/N=C(\C(=O)N[C@@H]1C(=O)N2C(C(=O)O)=C(CSc3nc(=O)c(=O)[nH]n3C)CS[C@H]12)c1csc(N)n1 [Ceftriaxone, ceftriaxone] |  | 2 (≈ 3.61 µM) | 8 (≈ 14.4 µM) | 51 | 76 | > 256 | > 256 | 2 (≈ 3.61 µM) | 4 (≈ 7.21 µM) | 2 (≈ 3.61 µM) | 2 (≈ 3.61 µM) | 55 | 20 | 17 | Fold increase in AK signal ([8]; treatment 0.5×MIC): 50 fold; Fold increase in AK signal ([9]; treatment 0.5×MIC): 2 fold; Fold increase in AK signal ([9]; treatment 1.0×MIC): 14 fold |
| O=C(O)c1cn(C2CC2)c2cc(N3CCNCC3)c(F)cc2c1=O [Ciprofloxacin, ciprofloxacin] |  |  |  |  |  |  |  |  |  |  |  |  |  |  | decrease in biofilm-associated bacteria / biofilm cell viability (plating) [11]: 0.7 log; decrease in SCV viability (plating) [12, 20]: no effect; increase in AK signal compared to mock-treated cells [12, 20]: no change |
| NC[C@H]1O[C@H](O[C@H]2[C@H](O)[C@@H](O[C@H]3O[C@H](CO)[C@@H](O)[C@H](N)[C@H]3O)[C@H](N)C[C@@H]2N)[C@H](O)[C@@H](O)[C@@H]1O [Kanamycin, kanamycin] | > 256 | 16 (≈ 33 µM) | 2 (≈ 4.13 µM) | 55 | 70 |  |  | 2 (≈ 4.13 µM) | 256 (≈ 528 µM) | 2 (≈ 4.13 µM) | 32 (≈ 66 µM) | 1 | 1 | 1 | MIC (Staphylococcus aureus; Staphylococcus aureus, USA300): > 256 µg/mL; Fold increase in AK signal ([8]; treatment 0.5×MIC): 1 fold |
| CC(=O)NC[C@H]1CN(c2ccc(N3CCOCC3)c(F)c2)C(=O)O1 [Linezolid, linezolid] |  | 2 (≈ 5.93 µM) | 256 (≈ 759 µM) |  |  | 16 (≈ 47.4 µM) | 2 (≈ 5.93 µM) |  |  |  |  |  |  |  | MIC ([2]; Klebsiella pneumoniae, CKP1): > 256 µg/mL; MIC [4]: > 256 µg/mL; MIC [5]: > 256 µg/mL; MIC (Escherichia coli 8295 [6]): > 256 µg/mL; Fold increase in AK signal ([13]; treatment 0.5×MIC): 2 fold; Fold increase in AK signal ([13]; treatment 1.0×MIC): 2 fold |
| C[C@@H](O)[C@H]1C(=O)N2C(C(=O)O)=C(S[C@@H]3CN[C@H](C(=O)N(C)C)C3)[C@H](C)[C@H]12 [Meropenem, meropenem] | > 256 | 2 (≈ 5.22 µM) | 2 (≈ 5.22 µM) | 60 | 85 |  | 4 (≈ 10.4 µM) | 2 (≈ 5.22 µM) | 2 (≈ 5.22 µM) | 2 (≈ 5.22 µM) | 2 (≈ 5.22 µM) | 220 | 99 | 296 | Fold increase in AK signal ([9]; treatment 0.5×MIC): 45 fold; Fold increase in AK signal ([9]; treatment 1.0×MIC): 39 fold; decrease in SCV viability (plating) [12, 20]: 0.5 log; increase in AK signal compared to mock-treated cells [12, 20]: 2.5 fold |
| CN(C)c1ccc(O)c2c1C[C@H]1C[C@H]3[C@H](N(C)C)C(O)=C(C(N)=O)C(=O)[C@@]3(O)C(O)=C1C2=O [Minocycline, minocycline] |  | 8 (≈ 17.5 µM) | 1 (≈ 2.19 µM) | 4 | 38 | 1 (≈ 2.19 µM) | 1 (≈ 2.19 µM) | 64 (≈ 140 µM) | 32 (≈ 69.9 µM) | 4 (≈ 8.74 µM) | 16 (≈ 35 µM) | 1 | 4 | 9 | Fold increase in AK signal ([13]; treatment 0.5×MIC): 3 fold; Fold increase in AK signal ([13]; treatment 1.0×MIC): 4 fold; Fold increase in AK signal ([8]; treatment 0.5×MIC): 1 fold; Fold increase in AK signal ([9]; treatment 0.5×MIC): 1 fold; Fold increase in AK signal ([9]; treatment 1.0×MIC): 6 fold |
| Cc1cc(NS(=O)(=O)c2ccc(N)cc2)no1 [Sulfamethoxazole, sulfamethoxazole] |  | 2 (≈ 7.9 µM) | 8 (≈ 31.6 µM) |  |  | > 256 | > 256 | > 256 | 256 (≈ 1010 µM) | > 256 | > 256 |  |  |  | fold induction at 50 µM (E. faecium; Enterococcus faecium, 3 h, 50 μM final drug concentration, 384-well format, cutoff for positive-scoring molecules 3-fold increase, read-out: AK-based Prestwick Library Screening Results, E. faecium (increase in extracellular AK activity)): 1; fold induction at 50 µM [14]: 0.7; fold induction at 50 µM (K. pneumoniae): 0.6; fold induction at 50 µM [15]: 1.3; fold induction at 50 µM (P. aeruginosa): 0.7; fold induction at 50 µM (E. cloacae): 0.7; fold induction at 50 µM (E. coli): 0.7 |
| CC/C(=C(\c1ccccc1)c1ccc(OCCN(C)C)cc1)c1ccccc1 [Tamoxifen, tamoxifen] |  |  |  |  |  | 8 (≈ 21.5 µM) |  |  |  |  |  |  |  |  | activity in AK Prestwick screen (E. faecium; E. faecium, 50 μM, cutoff 3-fold increase in AK): identified; higher survival than vehicle-treated controls (E. faecium strain 824-05; 80 mg kg-1 at 2 h and 24 h): 4.2 fold; higher survival than vehicle-treated controls (E. faecium strain 824-05; 160 mg kg-1 at 2 h and 24 h): 7 fold |
| CC(C)(C)c1ccc(C(O)CCCN2CCC(C(O)(c3ccccc3)c3ccccc3)CC2)cc1 (stereo not drawn) [Terfenadine] |  |  | 64 (≈ 136 µM) |  |  |  |  |  |  |  |  |  |  |  | MIC (Staphylococcus aureus; Staphylococcus aureus, S. aureus UAMS-1112 (small-colony variant), read-out: MIC): 2 µg/mL (≈ 4.24 µM); increase in AK release ([11]; 48-h S. aureus UAMS-1 biofilms): 2.7 fold; decrease in biofilm-associated bacteria / biofilm cell viability (plating) [11]: 1.1 log; increase in AK signal compared to mock-treated cells ([12]; S. aureus small-colony-variant UAMS-1112, 10×MIC): 3.3 fold |
| CN[C@H](CC(C)C)C(=O)N[C@H]1C(=O)N[C@@H](CC(N)=O)C(=O)N[C@H]2C(=O)N[C@H]3C(=O)N[C@H](C(=O)N[C@H](C(=O)O)c4cc(O)cc(O)c4-c4cc3ccc4O)[C@H](O)c3ccc(c(Cl)c3)Oc3cc2cc(c3O[C@@H]2O[C@H](CO)[C@@H](O)[C@H](O)[C@H]2O[C@H]2C[C@](C)(N)[C@H](O)[C@H](C)O2)Oc2ccc(cc2Cl)[C@H]1O [Vancomycin, vancomycin] | 2 (≈ 1.38 µM) | 2 (≈ 1.38 µM) |  | 1 | 2 |  |  |  |  |  |  |  |  |  | MIC (Staphylococcus aureus; Staphylococcus aureus, USA300): 1 µg/mL (≈ 0.69 µM); MIC ([2]; Klebsiella pneumoniae, CKP1): > 256 µg/mL; MIC ([3]; Acinetobacter baumannii): 64 µg/mL (≈ 44.2 µM); MIC [4]: > 256 µg/mL; MIC [5]: > 256 µg/mL; MIC (Escherichia coli 8295 [6]): 16 µg/mL (≈ 11 µM); Fold increase in AK signal ([13]; treatment 0.5×MIC): 1 fold; Fold increase in AK signal ([13]; treatment 1.0×MIC): 2 fold; decrease in SCV viability (plating) [12, 20]: no effect; increase in AK signal compared to mock-treated cells [12, 20]: no change |
